Laboratory results: patent US8410081B2, “Treatment of cystic fibrosis” (Academisch Medisch Centrum, priority 2006, dated 2013)

How the values were obtained:
[1] = molecular target: T1, GBA2 (non-lysosomal glucosylceramidase) (Homo sapiens, UniProt Q9HCG7); assay: non-lysosomal glucosylceramidase (GBA2) IC50 determination; type: biochemical; conditions: enzyme preparations exposed to dilutions of inhibitor
T1 construct: host or cells: GBA2 containing membranes
T1 sequence (Q9HCG7 1-927): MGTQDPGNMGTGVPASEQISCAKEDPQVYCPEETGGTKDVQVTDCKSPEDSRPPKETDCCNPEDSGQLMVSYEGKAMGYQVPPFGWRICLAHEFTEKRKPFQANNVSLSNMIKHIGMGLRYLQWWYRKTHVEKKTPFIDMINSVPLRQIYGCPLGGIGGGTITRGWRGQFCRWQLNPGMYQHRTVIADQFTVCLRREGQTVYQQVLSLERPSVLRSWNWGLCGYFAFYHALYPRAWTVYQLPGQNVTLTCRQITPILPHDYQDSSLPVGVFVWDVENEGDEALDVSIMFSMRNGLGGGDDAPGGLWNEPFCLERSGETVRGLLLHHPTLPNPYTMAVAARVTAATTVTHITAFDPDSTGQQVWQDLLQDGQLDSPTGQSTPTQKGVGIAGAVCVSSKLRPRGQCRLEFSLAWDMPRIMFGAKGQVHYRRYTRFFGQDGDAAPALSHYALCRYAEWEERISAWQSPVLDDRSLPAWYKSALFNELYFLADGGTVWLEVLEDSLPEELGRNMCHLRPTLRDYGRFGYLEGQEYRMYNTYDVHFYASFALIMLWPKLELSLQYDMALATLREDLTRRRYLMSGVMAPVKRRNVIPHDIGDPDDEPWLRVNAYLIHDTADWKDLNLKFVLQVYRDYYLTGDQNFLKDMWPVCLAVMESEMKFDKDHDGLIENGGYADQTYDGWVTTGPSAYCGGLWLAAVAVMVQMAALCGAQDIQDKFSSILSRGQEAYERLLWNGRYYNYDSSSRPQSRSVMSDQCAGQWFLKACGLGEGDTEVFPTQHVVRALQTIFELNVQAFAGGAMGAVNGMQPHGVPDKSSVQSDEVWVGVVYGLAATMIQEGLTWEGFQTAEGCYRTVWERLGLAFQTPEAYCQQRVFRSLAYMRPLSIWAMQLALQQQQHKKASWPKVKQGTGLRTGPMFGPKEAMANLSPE

[2] = molecular target: T2, glucosylceramide synthase (GCS) (Homo sapiens, UniProt Q16739); assay: glucosylceramide synthase (GCS) IC50 determination; type: biochemical; conditions: for IC50: enzyme preparations exposed to dilutions of inhibitor
T2 sequence (Q16739 1-394): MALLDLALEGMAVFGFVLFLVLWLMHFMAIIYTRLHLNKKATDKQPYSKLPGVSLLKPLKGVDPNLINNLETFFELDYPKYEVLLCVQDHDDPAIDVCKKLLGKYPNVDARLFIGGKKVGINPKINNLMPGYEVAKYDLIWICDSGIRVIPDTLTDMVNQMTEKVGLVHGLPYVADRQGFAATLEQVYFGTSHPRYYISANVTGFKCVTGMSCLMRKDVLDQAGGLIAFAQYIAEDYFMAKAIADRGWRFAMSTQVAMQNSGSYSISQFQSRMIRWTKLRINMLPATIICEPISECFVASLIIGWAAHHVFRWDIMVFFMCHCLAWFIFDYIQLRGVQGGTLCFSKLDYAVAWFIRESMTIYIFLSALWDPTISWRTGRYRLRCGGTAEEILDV

[3] = system: delF508-CFTR in ileal mucosa; assay: intestine explants from ileal mucosa of delF508 mice (short-circuit current, Western blot, immunohistochemistry); conditions: 10 nM
Method: To test the therapeutic potential of GBA2 inhibitors for CF further the effects of AMP-DNM on intestine explants from ileal mucosa of delF508 mice were analysed. The following assay was used:
Rotterdam delF508/delF508-CFTR mice (Cfr^tm1 Eur), their littermate controls (FVB inbred, 14-17 weeks old, weight between 20 and 30 g, kept on solid food in a pathogen-free environment) and Cftr-KO mice (Cftr^tm2 Cam) were used. Muscle-stripped ileal mucosa was incubated in William's E-Glutamax medium supplemented with insulin (10 μg/ml) and dexamethasone (20 μg/ml). At different time points, the compound was removed by repeated washings followed by short-circuit current (Isc) measurements in mini-Ussing chambers. Western blotting was as performed and immunoblots were probed with monoclonal mouse anti-CFTR antibody (10 μg/ml, IgG1 M3A7, Chemicon, USA). The protein levels were expressed as densitometry and percentage of controls. For immunohistochemistry, tissues were fixed in 4% (wt/vol) paraformaldehyde. Sections (5 μm) were stained with the antibody R3195 (1:500).

[4] = system: delF508-CFTR containing epithelial CF cells (CF15); assay: cAMP-activated chloride current, perforated whole-cell patch-clamp / iodide efflux in CF15 cells; type: cell-based, human; conditions: 10 nM; del F508-CFTR containing epithelial CF cells
Source text: The effects of AMP-DNM on cAMP-activated chloride current in delF508-CFTR containing epithelial CF cells were studied with the following assay:
Perforated whole-cell patch-clamp analysis was applied to CF15 cells (human nasal epithelial cell line obtained from delF508 homozygous patient). Patch electrodes (GC150-TF10, Harvard Apparatus, USA) filled with intracellular solution (resistances of 3-4 MΩ) were connected to the RK-400 amplifier (Biologic, France) through an Ag/AgCl pellet. External solution (mM): 145 NaCl, 4 CsCl, 1 MgCl2, 1 CaCl2, 5 d-glucose, 10 TES (pH 7.4, 315 mOsm). Intra-pipette solution (mM): 113 l-aspartic acid, 113 CsOH, 27 CsCl, 1 NaCl, 1 EGTA, 1 MgCl2, 3 Mg-ATP (ex-temporane), 10 TES (pH 7.2 with CsOH, 285 mOsm) and amphotericin B (100 μg/ml) renewed every 2 h. Only cells with input resistance […] were analysed. The mean access resistance and whole cell capacitance were 12±0.6 MΩ and 35±4.3 pF (n=44). Currents were obtained in response to voltage steps from −80 to +80 mV in 20 mV increment. Data were collected using pClamp 6.0.3 package software (Axon Instruments, USA). CFTR Cl^− channel activity was assayed on a cell population by the iodide (^125I) efflux technique.

| IC50 [1] | IC50 [2] | inhibition of GCS (in words) [2] | SMILES | rescue of delF508-CFTR in intestinal crypts of ileal mucosa [3] | restoration of cAMP-activated chloride current, % of normal levels [4] |
| --- | --- | --- | --- | --- | --- |
| 0.001 µM | 7.5 µM |  | OC[C@@H]1[C@@H](O)[C@H](O)[C@@H](O)CN1CCCCCCC12CC3CC(CC(C3)C1)C2 [N-[6′-adamantyl-hexan]-1-deoxynojirimycin] |  |  |
|  | > 100 µM | hardly inhibits GCS | CC(C)(C)COCCCCCN1C[C@H](O)[C@@H](O)[C@H](O)[C@H]1CO [N-[5′-neopentyloxy-pentan]-1-deoxynojirimycin] |  |  |
|  |  |  | OC[C@@H]1[C@@H](O)[C@H](O)[C@@H](O)CN1CCCCCOCC12CC3CC(CC(C3)C1)C2 [AMP-DNM, N-[5′-(adamantan-1′-yl-methoxy)-pentan]-1-deoxynojirimycin] | rescues a mature and functional delF508-CFTR | up to 30% |
| 0.002 µM | 10 µM |  | OC[C@@H]1[C@@H](O)[C@H](O)[C@@H](O)CN1CCCCOCC12CC3CC(CC(C3)C1)C2 [N-[5′-(adamantan-1′-yl-methoxy)-butan]-1-deoxynojirimycin] |  |  |
